Patent US10472341B2, “Bicyclic tetrahydrothiazepine derivatives useful for the treatment of neoplastic and/or infectious diseases” (APEIRON BIOLOGICS AG, priority 2015, dated 2019)
Several values for one entry are separate records, joined by “and”; a condition that tells them apart may be missing. Equal values may be shown once. Where a name gives a salt, the structure may show the parent alone. Read-outs that look alike come from different tables or passages of the source.

How the values were obtained:
[1] = tested on: aCD3/aCD28-stimulated human PBMCs; assay: Cytokine production in aCD3/aCD28 stimulated human PBMCs; assay type: cell-based; details: PBMC, 18 h
Outline: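 Compound effects measured in buffy-coat PBMCs activated 18 h at 37° C by 1 μg/mL each of soluble anti-CD3 (OKT3) and anti-CD28 (28.2), 1e6 cells/mL. Cytokines in harvested supernatants read by MSD or HTRF.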

CD8 T cells = assay: CD69 expression on aCD3/aCD28 stimulated isolated human CD8 T cells (flow cytometry); assay type: cell-based; details: T-cell, 24 h after TCR stimulation, read-out: Activity Class CD69 (CD8)
Procedure: (§1) Isolated T cells were plated in Xvivo medium at 1.5*10 ^5 cells per in 96 well culture plates and TCR-stimulated with anti-CD3/28 mAbs in the presence of compound as indicated. Cytokine production was determined at 24 h or 48 h following TCR stimulation in cell culture supernatants using commercially available ELISA kits (BD and eBioscience) as recommended by the manufacturer. T cell proliferation and CD25 expression (CD25-PC5 reagent purchased from Beckman Coulter) was determined by flow cytometry (Beckman-Coulter FC500) and analysed with Kaluza Software. For measurement of CD69 expression, isolated CD4 and CD8 T cells were plated in Xvivo medium at […] per in 96 well culture plates and TCR-stimulated with anti-CD3/28 mAbs in the presence of compound. CD69 expression was determined at 24 h following TCR stimulation by flow cytometry (CD4eF450, CD8APCeF780 and CD69-PC7 reagent purchased from eBioscience) and analysed with Kaluza Software.
(§2) For measurement of CD69 expression, isolated CD4 and CD8 T cells were plated in Xvivo medium at 80000 cells per in 96 well culture plates and TCR-stimulated with anti-CD3/28 mAbs in the presence of compound. CD69 expression was determined at 24 h following TCR stimulation by flow cytometry (CD4eF450, CD8APCeF780 and CD69-PC7 reagent purchased from eBioscience) and analysed with Kaluza Software.

CD4 T cells = assay: CD69 expression on aCD3/aCD28 stimulated isolated human CD4 T cells (flow cytometry); assay type: cell-based; details: 24 h after TCR stimulation, read-out: Activity Class CD69 (CD4)
Procedure: as §1, §2

[2] = tested on: CD8 T cells & M21 tumor cells; assay: CD8 T cells from M21-prestimulated PBMCs restimulated with M21 tumor cells, with or without PD-1 blockade; assay type: cell-based, human; details: for Average Granzyme B / Average IFN-g / Average IL-2 / Average Number of living M21 tumor cells: no cpd
Procedure: For experiments investigating effects of PD-1 blockade, PBMCs were preincubated with 1 h UV-irradiated M21 tumor cells (50000 tumor cells per 1 Mill. PBMCs) for 14 days. […] Compounds and anti-PD-1 antibody (Nivolumab) or control antibody without direct effects on CD8 T cells (Ipilimumab) were added where indicated.
[…] Example 107, no antibody (no Ig), anti-PD-1 antibody (Nivolumab) or control antibody without direct effects on CD8 T cells (Ipilimumab) were included where indicated.

[3] = enhancement of IFN-γ production, read-out: Activity Class IFN-γ
[4] = enhancement of IL-2 production, read-out: Activity Class IL-2

Compound	EC50 (CD8 T cells)	EC50 (CD4 T cells)	EC50 [1, 3]	EC50 [1, 4]	other results
Cl.N[C@H]1CS(=O)(=O)c2cc(F)c(C(=O)N[C@@H]3CC3(F)F)cc2N(Cc2ccc(Cl)cc2)C1=O (single isomer, unassigned) [Example 106, hydrochloride]	1.58 to 5.01 µM	1.58 to 5.01 µM	1.58 to 5.01 µM	1.58 to 5.01 µM	
N[C@H]1C[S@+]([O-])c2cc(F)c(C(=O)NCCCC(F)(F)F)cc2N(Cc2ccc(Cl)cc2)C1=O (single isomer, unassigned) [Example 122, hydrochloride]	1.58 to 5.01 µM	1.58 to 5.01 µM	< 1.58 µM	1.58 to 5.01 µM	
N[C@H]1C[S@@+]([O-])c2cc(F)c(C(=O)NCCCC(F)(F)F)cc2N(Cc2ccc(Cl)cc2)C1=O (single isomer, unassigned) [Example 123, hydrochloride]	> 5.01 µM	> 5.01 µM	< 1.58 µM	1.58 to 5.01 µM	
N#Cc1ccc(CN2C(=O)[C@@H](N)CS(=O)(=O)c3cc(F)c(C(=O)NC4CC4(F)F)cc32)cc1 (stereo partly drawn) [Example 124, (3R)-3-amino-5-[(4-cyanophenyl)methyl]-N-(2,2-difluorocyclopropyl)-8-fluoro-1,1,4-trioxo-2,3,4,5-tetrahydro-1λ^6,5-benzothiazepine-7-carboxamide hydrochloride]	> 5.01 µM	> 5.01 µM	1.58 to 5.01 µM	> 5.01 µM	
N#Cc1ccc(CN2C(=O)[C@@H](N)CS(=O)(=O)c3cc(F)c(C(=O)NCCCC(F)(F)F)cc32)cc1 [Example 125, (3R)-3-amino-5-[(4-cyanophenyl)methyl]-8-fluoro-1,1,4-trioxo-N-(4,4,4-trifluorobutyl)-2,3,4,5-tetrahydro-1λ^6,5-benzothiazepine-7-carboxamide hydrochloride]	1.58 to 5.01 µM	1.58 to 5.01 µM	< 1.58 µM	1.58 to 5.01 µM	
N[C@H]1CSc2cc(F)c(C(=O)NC3CC(F)(F)C3)cc2N(Cc2ccc(Cl)cc2)C1=O [Example 128, (3R)-3-amino-5-[(4-chlorophenyl)methyl]-N-(3,3-difluorocyclobutyl)-8-fluoro-4-oxo-2,3,4,5-tetrahydro-1,5-benzothiazepine-7-carboxamide hydrochloride]	1.58 to 5.01 µM	> 5.01 µM	1.58 to 5.01 µM	1.58 to 5.01 µM	
N[C@H]1CS(=O)(=O)c2cc(F)c(C(=O)NC3CC3(F)F)cc2N(Cc2ccc(F)cc2)C1=O (stereo partly drawn) [Example 130, (3R)-3-amino-N-(2,2-difluorocyclopropyl)-8-fluoro-5-[(4-fluorophenyl)methyl]-1,1,4-trioxo-2,3,4,5-tetrahydro-1λ^6,5-benzothiazepine-7-carboxamide hydrochloride]	1.58 to 5.01 µM	> 5.01 µM	1.58 to 5.01 µM	> 5.01 µM	
CCCCNC(=O)c1cc2c(cc1F)SC[C@H](N)C(=O)N2Cc1ccc(F)cc1 [Example 131, (3R)-3-amino-N-butyl-8-fluoro-5-[(4-fluorophenyl)methyl]-4-oxo-2,3,4,5-tetrahydro-1,5-benzothiazepine-7-carboxamide hydrochloride]	> 5.01 µM	> 5.01 µM	1.58 to 5.01 µM	> 5.01 µM	
N[C@H]1CSc2cc(F)c(C(=O)NCc3ccccc3)cc2N(Cc2ccc(F)cc2)C1=O [Example 132, (3R)-3-amino-N-benzyl-8-fluoro-5-[(4-fluorophenyl)methyl]-4-oxo-2,3,4,5-tetrahydro-1,5-benzothiazepine-7-carboxamide hydrochloride]	> 5.01 µM	> 5.01 µM	1.58 to 5.01 µM	> 5.01 µM	
N[C@H]1CS(=O)(=O)c2cc(F)c(C(=O)NCCC3CCOCC3)cc2N(Cc2ccc(Cl)cc2)C1=O [Example 135, (3R)-3-amino-5-[(4-chlorophenyl)methyl]-8-fluoro-N-[2-(oxan-4-yl)ethyl]-1,1,4-trioxo-2,3,4,5-tetrahydro-1λ^6,5-benzothiazepine-7-carboxamide hydrochloride]	1.58 to 5.01 µM	1.58 to 5.01 µM	< 1.58 µM	1.58 to 5.01 µM	
N[C@H]1CS(=O)(=O)c2cc(F)c(C(=O)NCCCC(F)(F)F)cc2N(Cc2ccccc2)C1=O [Example 136, (3R)-3-amino-5-benzyl-8-fluoro-1,1,4-trioxo-N-(4,4,4-trifluorobutyl)-2,3,4,5-tetrahydro-1λ^6,5-benzothiazepine-7-carboxamide hydrochloride]	< 1.58 µM	< 1.58 µM	< 1.58 µM	< 1.58 µM	
COc1ccc(CNC(=O)c2cc3c(cc2F)S(=O)(=O)C[C@H](N)C(=O)N3Cc2ccc(Cl)cc2)cc1 [Example 137, (3R)-3-amino-5-[(4-chlorophenyl)methyl]-8-fluoro-N-[(4-methoxyphenyl)methyl]-1,1,4-trioxo-2,3,4,5-tetrahydro-1λ^6,5-benzothiazepine-7-carboxamide hydrochloride]	< 1.58 µM	< 1.58 µM	< 1.58 µM	< 1.58 µM	
Ipilimumab					Average Granzyme B ([2]; Ipilimumab alone): 0.612 ng/mL; Average IFN-g ([2]; Ipilimumab alone): 0.000 ng/mL; Average IL-2 ([2]; Ipilimumab alone): 0.024 ng/mL; Average Number of living M21 tumor cells ([2]; Ipilimumab alone): 22648 and 25130; synergistic enhancement of cytokine production with example 107 ([2]; control antibody not targeting CD8 T cells): No such effects were observed
Nivolumab					reduction in viable tumor cells ([2]; Nivolumab alone): not able to cause a significant reduction in viable tumor cells; Average Granzyme B ([2]; Nivolumab alone): 1.758 ng/mL; Average IFN-g ([2]; Nivolumab alone): 0.014 ng/mL; Average IL-2 ([2]; Nivolumab alone): 0.046 ng/mL; Average Number of living M21 tumor cells ([2]; Nivolumab alone): 20344 and 22655; cytokine secretion ([2]; PD-1 blockade alone, CD8 T cells & M21 (expresses PD-L1)): also enhanced cytokine secretion

Now from value to compound, other results behind:

EC50 (CD8 T cells)	EC50 (CD4 T cells)	Compound	EC50 [1, 3]	EC50 [1, 4]	other results
< 1.58 µM	< 1.58 µM	Cl.N[C@H]1CS(=O)(=O)c2cc(F)c(C(=O)N[C@H]3CC3(F)F)cc2N(Cc2ccc(Cl)cc2)C1=O (single isomer, unassigned) [Example 107, hydrochloride]	< 1.58 µM	< 1.58 µM	
< 1.58 µM	< 1.58 µM	N[C@H]1CS(=O)(=O)c2cc(F)c(C(=O)NC3CCC(F)(F)CC3)cc2N(Cc2ccc(Cl)cc2)C1=O [Example 126, (3R)-3-amino-5-[(4-chlorophenyl)methyl]-N-(4,4-difluorocyclohexyl)-8-fluoro-1,1,4-trioxo-2,3,4,5-tetrahydro-1λ^6,5-benzothiazepine-7-carboxamide hydrochloride]	< 1.58 µM	< 1.58 µM	
< 1.58 µM	< 1.58 µM	N[C@H]1CS(=O)(=O)c2cc(F)c(C(=O)NC3CC3C(F)(F)F)cc2N(Cc2ccc(Cl)cc2)C1=O (stereo partly drawn) [Example 127, (3R)-3-amino-5-[(4-chlorophenyl)methyl]-8-fluoro-1,1,4-trioxo-N-[2-(trifluoromethyl)cyclopropyl]-2,3,4,5-tetrahydro-1λ^6,5-benzothiazepine-7-carboxamide hydrochloride]	< 1.58 µM	1.58 to 5.01 µM	
< 1.58 µM	< 1.58 µM	N[C@H]1CS(=O)(=O)c2cc(F)c(C(=O)NCCCC(F)(F)F)cc2N(Cc2ccc(F)cc2)C1=O [Example 129, (3R)-3-amino-8-fluoro-5-[(4-fluorophenyl)methyl]-1,1,4-trioxo-N-(4,4,4-trifluorobutyl)-2,3,4,5-tetrahydro-1λ^6,5-benzothiazepine-7-carboxamide hydrochloride]	< 1.58 µM	1.58 to 5.01 µM	
< 1.58 µM	< 1.58 µM	CCCCNC(=O)c1cc2c(cc1F)S(=O)(=O)C[C@H](N)C(=O)N2Cc1ccc(F)cc1 [Example 133, (3R)-3-amino-N-butyl-8-fluoro-5-[(4-fluorophenyl)methyl]-1,1,4-trioxo-2,3,4,5-tetrahydro-1λ^6,5-benzothiazepine-7-carboxamide hydrochloride]	< 1.58 µM	1.58 to 5.01 µM	
< 1.58 µM	< 1.58 µM	N[C@H]1CS(=O)(=O)c2cc(F)c(C(=O)NCc3ccccc3)cc2N(Cc2ccc(F)cc2)C1=O [Example 134, (3R)-3-amino-N-benzyl-8-fluoro-5-[(4-fluorophenyl)methyl]-1,1,4-trioxo-2,3,4,5-tetrahydro-1λ^6,5-benzothiazepine-7-carboxamide hydrochloride]	< 1.58 µM	< 1.58 µM	
